ChEMBL document CHEMBL1201862, “PubChem BioAssay data set” (2004)
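Step 1: Grow cells in 96-well plates. Step 2: Expose to compound for 48 hours at 5 concentrations. Step 3: Interpolate endpoints linearly; if unreached, use highest concentration. GI50 is the concentration that inhibits growth by half.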 The source made the active and inactive calls. Rule as the data show it: active = GI50 up to about 1.1 µM and inactive = higher.

Key:
Assay in all cases: NCI-60 cell line screen, 48 h
[1] = tested on: 786-0
[2] = tested on: HT-29
[3] = tested on: MDA-MB-435
[4] = tested on: HCT-15
[5] = tested on: DU-145
[6] = tested on: RPMI-8226
[7] = tested on: SN12C
[8] = tested on: ACHN
[9] = tested on: M14
[10] = tested on: UACC-62
[11] = tested on: NCI/ADR-RES
[12] = tested on: SK-MEL-2
[13] = tested on: T47D
[14] = tested on: SK-MEL-28
[15] = tested on: OVCAR-5
[16] = tested on: UO-31
[17] = tested on: CAKI-1
[18] = tested on: SF-268
[19] = tested on: RXF 393
[20] = tested on: MCF7
[21] = tested on: NCI-H522
[22] = tested on: SK-MEL-5
[23] = tested on: NCI-H226
[24] = tested on: SF-539
[25] = tested on: K562
[26] = tested on: U-251
[27] = tested on: Hs-578T
[28] = tested on: A549
[29] = tested on: OVCAR-3
[30] = tested on: LOX IMVI
[31] = tested on: CCRF-CEM
[32] = tested on: COLO 205
[33] = tested on: OVCAR-8
[34] = tested on: EKVX
[35] = tested on: UACC-257
[36] = tested on: NCI-H23
[37] = tested on: MDA-N
[38] = tested on: KM12
[39] = tested on: BT-549
[40] = tested on: SNB-19
[41] = tested on: MOLT-4
[42] = tested on: HOP-62
[43] = tested on: HCT-116
[44] = tested on: HL-60
[45] = tested on: TK-10
[46] = tested on: IGROV-1
[47] = tested on: HOP-92
[48] = tested on: A498
[49] = tested on: PC-3
[50] = tested on: OVCAR-4
[51] = tested on: SNB-75
[52] = tested on: SF-295
[53] = tested on: SW-620
[54] = tested on: NCI-H460
[55] = tested on: SK-OV-3
[56] = tested on: Malme-3M
[57] = tested on: SR
[58] = tested on: HCC 2998

COc1ccc(CCN(C)C(=O)CC(C#N)(c2ccccc2)c2ccc(OC)c(OC)c2)cc1OC (stereo not given)
GI50 [1]: > 100 µM (inactive)
GI50 [2]: > 100 µM (inactive)
GI50 [3]: > 100 µM (inactive)
GI50 [4]: > 100 µM
GI50 [5]: > 100 µM (inactive)
GI50 [6]: > 46.9 µM (inactive)
GI50 [7]: > 100 µM (inactive)
GI50 [8]: > 100 µM (inactive)
GI50 [9]: > 100 µM (inactive)
GI50 [10]: > 100 µM (inactive)
GI50 [11]: > 100 µM (inactive)
GI50 [12]: > 100 µM (inactive)
GI50 [13]: > 100 µM (inactive)
GI50 [14]: > 100 µM (inactive)
GI50 [15]: > 100 µM (inactive)
GI50 [16]: > 74.6 µM (inactive)
GI50 [17]: > 100 µM (inactive)
GI50 [18]: > 100 µM (inactive)
GI50 [19]: > 86.5 µM (inactive)
GI50 [20]: > 100 µM (inactive)
GI50 [21]: > 94.6 µM (inactive)
GI50 [22]: 98.4 µM (inactive)
GI50 [23]: > 100 µM (inactive)
GI50 [24]: > 100 µM (inactive)
GI50 [25]: > 42.2 µM (inactive)
GI50 [26]: > 100 µM (inactive)
GI50 [27]: > 100 µM (inactive)
GI50 [28]: > 100 µM (inactive)
GI50 [29]: > 100 µM (inactive)
GI50 [30]: > 100 µM (inactive)
GI50 [31]: > 100 µM (inactive)
GI50 [32]: > 100 µM (inactive)
GI50 [33]: > 100 µM (inactive)
GI50 [34]: > 100 µM (inactive)
GI50 [35]: > 100 µM (inactive)
GI50 [36]: > 100 µM (inactive)
GI50 [37]: > 100 µM (inactive)
GI50 [38]: > 100 µM (inactive)
GI50 [39]: > 100 µM (inactive)
GI50 [40]: > 100 µM (inactive)
GI50 [41]: > 45.9 µM (inactive)
GI50 [42]: > 100 µM (inactive)
GI50 [43]: > 100 µM (inactive)
GI50 [44]: > 100 µM (inactive)
GI50 [45]: > 100 µM (inactive)
GI50 [46]: > 100 µM (inactive)
GI50 [47]: 3.15 µM (inactive)
GI50 [48]: > 100 µM (inactive)
GI50 [49]: > 100 µM (inactive)
GI50 [50]: > 100 µM (inactive)
GI50 [51]: > 100 µM (inactive)
GI50 [52]: > 100 µM (inactive)
GI50 [53]: > 100 µM (inactive)
GI50 [54]: > 100 µM (inactive)
GI50 [55]: > 100 µM (inactive)
GI50 [56]: > 100 µM (inactive)

O=C(CSc1nc2ccc(I)cc2c(=O)n1Cc1ccccc1)NNC(=S)Nc1ccccc1
GI50 [1]: 7.4 µM (inactive)
GI50 [2]: 41.5 µM (inactive)
GI50 [3]: 41.3 µM (inactive)
GI50 [4]: 8.95 µM
GI50 [5]: > 100 µM (inactive)
GI50 [6]: 12.6 µM (inactive)
GI50 [7]: 3.9 µM (inactive)
GI50 [8]: 18.9 µM (inactive)
GI50 [9]: 62.2 µM (inactive)
GI50 [10]: 33.4 µM (inactive)
GI50 [11]: 77.6 µM (inactive)
GI50 [12]: 18 µM (inactive)
GI50 [13]: 23.5 µM (inactive)
GI50 [14]: > 100 µM (inactive)
GI50 [15]: > 100 µM (inactive)
GI50 [17]: 3.33 µM (inactive)
GI50 [18]: 5.27 µM (inactive)
GI50 [57]: 3.1 µM (inactive)
GI50 [19]: > 100 µM (inactive)
GI50 [20]: 22.5 µM (inactive)
GI50 [21]: 4.98 µM (inactive)
GI50 [22]: 13.8 µM (inactive)
GI50 [23]: 6.53 µM (inactive)
GI50 [25]: 11.3 µM (inactive)
GI50 [26]: 6.24 µM (inactive)
GI50 [27]: 7.78 µM (inactive)
GI50 [58]: 43.3 µM (inactive)
GI50 [28]: 24.6 µM (inactive)
GI50 [29]: 12.9 µM (inactive)
GI50 [30]: > 100 µM (inactive)
GI50 [31]: 6.14 µM (inactive)
GI50 [32]: 23.1 µM (inactive)
GI50 [33]: 3.11 µM (inactive)
GI50 [34]: 1.73 µM (inactive)
GI50 [35]: 14.7 µM (inactive)
GI50 [36]: 15.1 µM (inactive)
GI50 [37]: 30.3 µM (inactive)
GI50 [38]: 34.4 µM (inactive)
GI50 [39]: 80.5 µM (inactive)
GI50 [40]: 41.3 µM (inactive)
GI50 [41]: 6.08 µM (inactive)
GI50 [43]: 8.63 µM (inactive)
GI50 [44]: 25.5 µM (inactive)
GI50 [45]: 61.8 µM (inactive)
GI50 [46]: 2.91 µM (inactive)
GI50 [47]: 11.8 µM (inactive)
GI50 [48]: 3.55 µM (inactive)
GI50 [49]: 9.68 µM (inactive)
GI50 [50]: 6.53 µM (inactive)
GI50 [51]: > 100 µM (inactive)
GI50 [52]: 54 µM (inactive)
GI50 [53]: 33.6 µM (inactive)
GI50 [54]: 5.47 µM (inactive)
GI50 [55]: > 100 µM (inactive)
